These are literature values, as cited in US20160158308A1 (priority 2013, published 2016).

Read-outs that look alike come from different tables or passages of the source.

The conditions of data set [1]: rat liver, CO-60, water control = 0% removal.
In data set [2] the test system is Mycobacterium tuberculosis. As to conditions: NAC at 10 millimolar.

With `N[C@@H](CCC(=O)N[C@@H](CS)C(=O)NCC(=O)O)C(=O)O` [Plain glutathione, glutathione], the “removal of the toxin” value in data set [1] is 0%; in data set [1] (listed as Intravenous glutathione), 64%.

On to `CC(=O)N[C@@H](CS)C(=O)O` [NAC, N-acetyl cysteine], for which, in data set [2], the “M. tuberculosis CFU/ml” value was 8,000 CFU/ml.
